{
  "source": "patent US6737383B1",
  "about": "“Herbicidal oxadiazolidines” (priority 1999, dated 2004)",
  "settings_in_all_cases": "0 to 10 scale where 0 is no effect and 10 is complete control",
  "key": {"barnyardgrass": {"tested_on": "barnyardgrass", "test": "Test A barnyardgrass", "assay_type": "in vivo, Echinochloa crus-galli", "how_it_was_run": "(§1)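 Injury scored visually after about eleven greenhouse days against untreated plants, 0 = no effect, 10 = complete control. Compounds, formulated in surfactant-containing non-phytotoxic solvent, were applied as preemergence soil drench to sandy loam plantings and as postemergence runoff spray at the 1–2 leaf stage.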"}, "crabgrass": {"tested_on": "crabgrass", "test": "Test A crabgrass", "assay_type": "in vivo, Digitaria spp.", "how_it_was_run": "as §1"}, "morningglory": {"tested_on": "morningglory", "test": "Test A morningglory", "assay_type": "in vivo, Ipomoea spp.", "experimental": "Seeds of barnyardgrass (Echinochloa crus-galli), crabgrass (Digitaria spp.), morningglory (Ipomoea spp.), and velvetleaf (Abutilon theophrasti) were planted into a sandy loam soil and treated preemergence by soil drench with test chemicals formulated in a non-phytotoxic solvent mixture which includes a surfactant At the same time, these crop and weed species were also treated postemergence sprayed to runoff, with test chemicals formulated in the same manner.\nPlants ranged in height from two to eighteen cm and were in the one to two leaf stage for the postemergence treatment. Treated plants and untreated controls were maintained in a greenhouse for approximately eleven days, after which all treated plants were compared to untreated controls and visually evaluated for injury. Plant response ratings, summarized in Table A, are based on a 0 to 10 scale where 0 is no effect and 10 is complete control."}},
  "data": [
    {"smiles": "CCc1cccc(C)c1-n1c(=O)on(C(=O)N(c2ccc(F)cc2)C(C)C)c1=O", "note": "[Compound 52]", "values": [
      {"measurement": "Plant response rating, Barnyardgrass", "setting": "barnyardgrass; Postemergence, Rate 1000 g/ha", "result": 5},
      {"measurement": "Plant response rating, Barnyardgrass", "setting": "barnyardgrass; Pre-emergence, Rate 2000 g/ha", "result": 9},
      {"measurement": "Plant response rating, Crabgrass", "setting": "crabgrass; Postemergence, Rate 1000 g/ha", "result": 8},
      {"measurement": "Plant response rating, Crabgrass", "setting": "crabgrass; Pre-emergence, Rate 2000 g/ha", "result": 10},
      {"measurement": "Plant response rating, Morningglory", "setting": "morningglory; Postemergence, Rate 1000 g/ha", "result": 1},
      {"measurement": "Plant response rating, Morningglory", "setting": "morningglory; Pre-emergence, Rate 2000 g/ha", "result": 0}
    ]}
  ]
}
